# What was measured:
# Assay type in all cases: cell-based
# [1] = system: LK-2; experiment: Cancer cell viability, LK-2 (CellTiter-Glo); details: Homo sapiens, LK-2, 72 h, LK-2 cells, 3 days, read-out: Cellular IC50 (μM) LK-2
# Outline: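 A549 and LK-2 cells were seeded overnight at 20 K/mL and 35 K/mL respectively. They were then exposed for 3 days to nine three-fold dilutions, typically from 30 µM final. Viability was read as CellTiter-Glo luminescence after a 15 min lysis.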
# [2] = molecular target: T1, Nrf2 (Homo sapiens, UniProt Q16236); experiment: Protein degradation assay in huH1 cells by Western blot; design: tested for protein degradation in huH1 cells; host or cells: huH1 (Huh1) human hepatoma cells
# T1 sequence (Q16236 1-605): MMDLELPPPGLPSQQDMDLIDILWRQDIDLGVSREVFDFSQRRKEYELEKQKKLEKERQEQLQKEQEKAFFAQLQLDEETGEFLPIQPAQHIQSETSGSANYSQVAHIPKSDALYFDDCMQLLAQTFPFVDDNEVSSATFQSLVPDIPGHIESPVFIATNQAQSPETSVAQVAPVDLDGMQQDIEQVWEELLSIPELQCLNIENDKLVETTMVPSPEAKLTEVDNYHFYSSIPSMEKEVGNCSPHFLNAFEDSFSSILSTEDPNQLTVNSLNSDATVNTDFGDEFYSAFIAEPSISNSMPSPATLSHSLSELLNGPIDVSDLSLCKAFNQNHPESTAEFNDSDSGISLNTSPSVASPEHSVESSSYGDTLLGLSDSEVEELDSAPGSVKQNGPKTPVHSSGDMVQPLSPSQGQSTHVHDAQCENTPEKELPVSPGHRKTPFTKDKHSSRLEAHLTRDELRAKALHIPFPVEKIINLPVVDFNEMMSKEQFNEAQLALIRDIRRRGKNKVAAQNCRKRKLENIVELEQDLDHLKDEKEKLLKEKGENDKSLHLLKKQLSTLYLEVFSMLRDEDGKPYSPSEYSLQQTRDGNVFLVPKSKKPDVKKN
# Experimental: Representative Compounds of the Disclosure were tested for protein degradation in huH1 cells (Vendor: JCRB: Cat #JCRB0199; Description: Human hepatoma) by Western blot analysis according to the following general protocol.
# Day 0: Plated the Huh1 cells into 10-cm dishes (1.5×10^6/dish)
# Day 1: Treated the cells with compounds at five concentrations, e.g., 0.01 μM, 0.04 μM, 0.11 μM, 0.33 μM and 1 μM; or 0.4 μM, 1.1 μM, 3.3 μM, 10 μM, and 30 μM.
# Day 4: Harvested the cell pellets, spilt 1/3 of the pellet to extract RNA by Nucleospin RNA plus kit and measure Nrf2 and GPX2 by RT-PCR, the remaining 2/3 of the pellet to run Western blot analysis.
# • a) Cell samples were lysed with lysis buffer (1×Cell lysis buffer added Protease inhibitor and phosphatase inhibitor) on ice for 5˜10 min and spun at 15,000 rpm in an Eppendorf microfuge for 15 min at 4° C. • b) The protein supernatant was collected in a new 1.5 ml tube and the protein concentrations were determined by the Pierce BCA kit (Thermo #23225). • c) Mixed protein sample with 5×SDS-PAGE loading buffer. • d) Boiled for 5 min. • e) Cooled at RT or on ice for 5 min. • f) Flash spun to bring down condensation prior to loading gel.
# • a) After flash spinning the samples, 20 μg protein were loaded into the wells. • b) Using SDS-PAGE running buffer. • c) Run with Constant Voltage (70 V) for 1.5-2 hr. Membrane transfer • a) Assembled “sandwich” for Invitrogen iBlot. • b) Transferred for 9 min using P0 program. • c) Immersed membrane in Odyssey blocking buffer or 5% BSA for at least 1 hr.
# • a) Incubated with 1st Antibody 1:500 diluted in blocking buffer overnight at 4° C. • b) Washed 4×15 min with 0.05-0.1% Tween 20 in TBS. • c) Incubated with secondary antibody 1:10K diluted in blocking buffer for at least 1 hr at RT. • d) Washed 3×15 min with 0.05-0.1% Tween 20 in TBS. • e) Detected with ODYSSEY (Li—COR) The results are provided in Table 5.
# [3] = system: A549; experiment: Cancer cell viability, A549 (CellTiter-Glo); details: Homo sapiens, 72 h, A549 cells, 3 days, read-out: Cellular IC50 (μM) A549
# Outline: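 A549 and/or LK-2 lung carcinoma cells seeded overnight (20 K/mL A549; 35 K/mL LK-2), then exposed to compound for 3 days. Viability read as CellTiter-Glo luminescence after 15 min lysis; data fitted to curves.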
# [4] = molecular target: T1, Nrf2; experiment: Nrf2 degradation in A549 HiBiT-Nrf2 cells, Nano-Glo HiBiT lytic detection (HiBiT readout); design: host or cells: A549 HiBiT-Nrf2 cells (engineered line bought from Promega)
# Outline: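 A549 HiBiT-Nrf2 cells seeded at 5,000 cells/well in Ham's F-12 with 10% FBS, then treated next day for 6 h and 20 h at 37 °C, 5% CO2. Nrf2 degradation read by Nano-Glo HiBiT lytic luminescence after 30 min at room temperature; staurosporine served as control.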
# [5] = X marks the class 0.1-1 μM, read-out: DC50 huHI1 cells 0.1-1 μM
IC50 [1] [µM],"DC50 [2, 5] [µM]",IC50 [3] [µM],"DC50 ([2]; X marks the class >10 μM, read-out: DC50 huHI1 cells >10 μM) [µM]","DC50 ([4]; 6 h, read-out: DC50 (nM) at 6 h) [nM]","DC50 ([4]; 20 h, read-out: DC50 (nM) at 20 h) [nM]",SMILES
0.04,0.1 to 1,0.1,,,,"Cc1ccccc1C(=O)N1CCc2cc(-c3nc(NC(=O)Cc4cccc(OCCOCCNc5cccc6c5C(=O)N(C5CCC(=O)NC5=O)C6=O)c4)sc3C)ccc21 (centres unmarked) [Cpd. No. 1, 2-(3-(2-(2-((2-(2,6-dioxopiperidin-3-yl)-1,3-dioxoisoindolin-4-yl)amino)ethoxy)ethoxy)phenyl)-N-(5-methyl-4-(1-(2-methylbenzoyl)indolin-5-yl)thiazol-2-yl)acetamide]"
,,> 30,> 10,,,"Cc1ccccc1C(=O)N1CCc2cc(-c3nc(NC(=O)Cc4cccc(OCCOCCOCCNc5cccc6c5C(=O)N(C5CCC(=O)NC5=O)C6=O)c4)sc3C)ccc21 (centres unmarked) [Cpd. No. 2, 2-(3-(2-(2-(2-((2-(2,6-dioxopiperidin-3-yl)-1,3-dioxoisoindolin-4-yl)amino)ethoxy)ethoxy)ethoxy)phenyl)-N-(5-methyl-4-(1-(2-methylbenzoyl)indolin-5-yl)thiazol-2-yl)acetamide]"
0.3,0.1 to 1,~30,,> 3000,> 3000,"Cc1ccccc1C(=O)N1CCc2cc(-c3nc(NC(=O)Cc4cccc(OCCOCCOc5cccc6c5C(=O)N(C5CCC(=O)NC5=O)C6=O)c4)sc3C)ccc21 (centres unmarked) [Cpd. No. 12, 2-(3-(2-(2-((2-(2,6-dioxopiperidin-3-yl)-1,3-dioxoisoindolin-4-yl)oxy)ethoxy)ethoxy)phenyl)-N-(5-methyl-4-(1-(2-methylbenzoyl)indolin-5-yl)thiazol-2-yl)acetamide]"
,0.1 to 1,,,,,"Cc1ccccc1C(=O)N1CCc2cc(-c3nc(NC(=O)Cc4cccc(OCCOCCOCCOCCOc5ccc6c(c5)C(=O)N(C5CCC(=O)NC5=O)C6=O)c4)sc3C)ccc21 (centres unmarked) [Cpd. No. 13, 2-(3-(2-(2-(2-(2-((2-(2,6-dioxopiperidin-3-yl)-1,3-dioxoisoindolin-5-yl)oxy)ethoxy)ethoxy)ethoxy)ethoxy)phenyl)-N-(5-methyl-4-(1-(2-methylbenzoyl)indolin-5-yl)thiazol-2-yl)acetamide]"
